Results: ChEMBL document CHEMBL5360523, “Ligand- and structure-based identification of novel CDK9 inhibitors for the potential treatment of leukemia” (Bioorg Med Chem, 2022)
pIC50: −log10 of the molar value. Calls of active or inactive are those of the source. No cut-off for these calls is given here.

Key:
[1] = Stability of the compound in artificial intestinal fluid assessed as compound remaining measured upto 8 hrs by HPLC analysis; type: ADME; details: read-out: Stability
[2] = target: T1, Cyclin-dependent kinase 9 (Homo sapiens, UniProt P50750); test: Inhibition of CDK9 (unknown origin) at 20 uM incubated for 10 mins relative to control
T1 sequence (P50750 whole entry): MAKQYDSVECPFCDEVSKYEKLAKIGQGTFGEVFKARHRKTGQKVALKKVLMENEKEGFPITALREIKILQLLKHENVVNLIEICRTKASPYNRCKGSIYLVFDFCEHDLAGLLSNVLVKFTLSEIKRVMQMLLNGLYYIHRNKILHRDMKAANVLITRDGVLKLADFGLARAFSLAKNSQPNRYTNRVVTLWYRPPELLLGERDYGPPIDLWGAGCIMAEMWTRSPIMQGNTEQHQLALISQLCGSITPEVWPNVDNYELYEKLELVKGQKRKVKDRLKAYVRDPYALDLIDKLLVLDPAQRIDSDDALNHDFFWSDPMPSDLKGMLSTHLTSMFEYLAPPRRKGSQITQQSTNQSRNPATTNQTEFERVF

A549 = test: Antiproliferative activity against human A549 cells assessed as inhibition of cell viability incubated for 48 hrs by CCK8 method; type: functional, cell-based; details: A549, 48 h
[3] = target: T1, Cyclin-dependent kinase 9; test: Inhibition of CDK9 (unknown origin) incubated for 10 mins
HepG2 = test: Antiproliferative activity against human HepG2 cells assessed as inhibition of cell viability incubated for 48 hrs by CCK8 method; type: functional, cell-based; details: HepG2, 48 h
[4] = Stability of the compound in artificial gastric fluid assessed as compound remaining measured upto 8 hrs by HPLC analysis; type: ADME; details: read-out: Stability
MCF7 = test: Antiproliferative activity against human MCF7 cells assessed as inhibition of cell viability incubated for 48 hrs by CCK8 method; type: functional, cell-based; details: MCF7, 48 h
MOLM-13 [5] = test: Antiproliferative activity against human MOLM-13 cells assessed as inhibition of cell viability incubated for 48 hrs by CCK8 method; type: functional, cell-based; details: MOLM-13, 48 h
[6] = Stability in human plasma assessed as compound remaining measured upto 4 hrs by HPLC analysis; type: ADME, cell-free; details: read-out: Stability
HeLa = test: Antiproliferative activity against human HeLa cells assessed as inhibition of cell viability incubated for 48 hrs by CCK8 method; type: functional, cell-based
HCT-116 = test: Antiproliferative activity against human HCT-116 cells assessed as inhibition of cell viability incubated for 48 hrs by CCK8 method; type: functional, cell-based; details: HCT-116, 48 h
[7] = Stability in rat liver microsomes assessed as compound remaining measured upto 3 hrs by HPLC analysis; type: ADME, Microsome; details: read-out: Stability
CNE-2 = test: Antiproliferative activity against human CNE-2 cells assessed as inhibition of cell viability incubated for 48 hrs by CCK8 method; type: functional, cell-based; details: CNE-2, 48 h
MDA-MB-231 = test: Antiproliferative activity against human MDA-MB-231 cells assessed as inhibition of cell viability incubated for 48 hrs by CCK8 method; type: functional, cell-based; details: MDA-MB-231, 48 h
MOLM-13 [8] = test: Induction of apoptosis in human MOLM-13 cells assessed as early apoptotic cells at 2.5 uM incubated for 24 hrs by Annexin V-FITC and propidium iodide staining based flow cytometry analysis (reference value: 2.86%); type: functional
MOLM-13 [9] = test: Induction of apoptosis in human MOLM-13 cells assessed as late apoptotic cells at 2.5 uM incubated for 24 hrs by Annexin V-FITC and propidium iodide staining based flow cytometry analysis (reference value: 3.65%); type: functional
MOLM-13 [10] = test: Induction of apoptosis in human MOLM-13 cells assessed as necrotic cells at 5 uM incubated for 24 hrs by Annexin V-FITC and propidium iodide staining based flow cytometry analysis (reference value: 0.84%); type: functional
MOLM-13 [11] = test: Induction of apoptosis in human MOLM-13 cells assessed as viable cells at 2.5 uM incubated for 24 hrs by Annexin V-FITC and propidium iodide staining based flow cytometry analysis (reference value: 92.7%); type: functional; details: read-out: Activity
MOLM-13 [12] = test: Induction of apoptosis in human MOLM-13 cells assessed as late apoptotic cells at 5 uM incubated for 24 hrs by Annexin V-FITC and propidium iodide staining based flow cytometry analysis (reference value: 3.65%); type: functional
MOLM-13 [13] = test: Induction of apoptosis in human MOLM-13 cells assessed as necrotic cells at 2.5 uM incubated for 24 hrs by Annexin V-FITC and propidium iodide staining based flow cytometry analysis (reference value: 0.84%); type: functional
MOLM-13 [14] = test: Induction of apoptosis in human MOLM-13 cells assessed as viable cells at 10 uM incubated for 24 hrs by Annexin V-FITC and propidium iodide staining based flow cytometry analysis (reference value: 92.7%); type: functional; details: read-out: Activity
[15] = target: T1, Cyclin-dependent kinase 9; test: Inhibition of CDK9 in human MOLM-13 cells assessed as suppression of p-RNAP II CTD (Ser2 residue) phosphorylation incubated for 24 hrs by Western blot analysis; type: cell-based; details: dose 10-25 µM
MOLM-13 [16] = test: Induction of apoptosis in human MOLM-13 cells assessed as necrotic cells at 10 uM incubated for 24 hrs by Annexin V-FITC and propidium iodide staining based flow cytometry analysis (reference value: 0.84%); type: functional
MOLM-13 [17] = test: Induction of apoptosis in human MOLM-13 cells assessed as viable cells at 5 uM incubated for 24 hrs by Annexin V-FITC and propidium iodide staining based flow cytometry analysis (reference value: 92.7%); type: functional; details: read-out: Activity
[18] = target: T1, Cyclin-dependent kinase 9; test: Inhibition of CDK9 in human MOLM-13 cells assessed as increase in cleaved PARP level at 10 to 25 uM incubated for 24 hrs by Western blot analysis; type: cell-based; details: dose 10-25 µM
MOLM-13 [19] = test: Induction of apoptosis in human MOLM-13 cells assessed as early apoptotic cells at 10 uM incubated for 24 hrs by Annexin V-FITC and propidium iodide staining based flow cytometry analysis (reference value: 2.86%); type: functional
MOLM-13 [20] = test: Induction of apoptosis in human MOLM-13 cells incubated for 24 hrs by Annexin V-FITC and propidium iodide staining based flow cytometry analysis; type: functional, cell-based; details: dose 2.5-10 µM
MOLM-13 [21] = test: Induction of apoptosis in human MOLM-13 cells assessed as late apoptotic cells at 10 uM incubated for 24 hrs by Annexin V-FITC and propidium iodide staining based flow cytometry analysis (reference value: 3.65%); type: functional
[22] = target: T1, Cyclin-dependent kinase 9; test: Inhibition of CDK9 in human MOLM-13 cells assessed as decrease in Mcl-1 expression incubated for 24 hrs by Western blot analysis; type: cell-based; details: dose 10-25 µM
MOLM-13 [23] = test: Induction of apoptosis in human MOLM-13 cells assessed as early apoptotic cells at 5 uM incubated for 24 hrs by Annexin V-FITC and propidium iodide staining based flow cytometry analysis (reference value: 2.86%); type: functional

## Nc1nc(NCCc2ccccc2)nc(-c2cc(Cl)ccc2O)n1
[1]
  remaining at 8 h: > 90%
[2]
  inhibition: 92.2%
A549
  pIC50: 4.55
[3]
  pIC50: 6.30
HepG2
  pIC50: 4.54
[4]
  remaining at 8 h: > 90%
MCF7
  pIC50: 4.54
MOLM-13 [5]
  pIC50: 5.34
[6]
  remaining at 4 h: > 90%
HeLa
  pIC50: 4.60
HCT-116
  pIC50: < 4.30
[7]
  remaining at 3 h: > 90%
CNE-2
  pIC50: < 4.30
MDA-MB-231
  pIC50: 4.84

## O=C(Cn1cc(Br)c(=O)n(CC(=O)Nc2ccc(Br)cn2)c1=O)Nc1ccc(Br)cn1
[1]
  remaining at 8 h: > 90%
[2]
  inhibition: 76.4%
A549
  pIC50: 4.81
[3]
  pIC50: 6.66
HepG2
  pIC50: < 4.30
[4]
  remaining at 8 h: > 90%
MCF7
  pIC50: 5.21
MOLM-13 [5]
  pIC50: 4.93
[6]
  remaining at 4 h: > 90%
HeLa
  pIC50: 5.18
HCT-116
  pIC50: 5.49
[7]
  remaining at 3 h: > 90%
CNE-2
  pIC50: 4.55
MDA-MB-231
  pIC50: 5.08

## Nc1nc(Nc2ccccc2)nc(-c2cc(Cl)ccc2O)n1
[1]
  remaining at 8 h: > 90%
[2]
  inhibition: 88.4%
MOLM-13 [8]
  Activity: 3.2%
MOLM-13 [9]
  Activity: 3.88%
A549
  pIC50: < 4.30
[3]
  pIC50: 6.53
MOLM-13 [10]
  Activity: 1.12%
HepG2
  pIC50: < 4.30
[4]
  remaining at 8 h: > 90%
MCF7
  pIC50: 4.63
MOLM-13 [11]
  viability at 2.5 µM: 92.1%
MOLM-13 [5]
  pIC50: 5.41
MOLM-13 [12]
  Activity: 3.96%
[6]
  remaining at 4 h: > 90%
HeLa
  pIC50: 5.60
HCT-116
  pIC50: 4.65
MOLM-13 [13]
  Activity: 0.77%
MOLM-13 [14]
  viability at 10 µM: 87.1%
[15]
  inhibition: Dose-Dependent Effect
[7]
  remaining at 3 h: > 90%
MOLM-13 [16]
  Activity: 1.38%
MOLM-13 [17]
  viability at 5 µM: 90.9%
[18]
  inhibition: Active
CNE-2
  pIC50: 4.46
MOLM-13 [19]
  Activity: 6.13%
MOLM-13 [20]
  Activity: Dose-Dependent Effect
MOLM-13 [21]
  Activity: 5.43%
[22]
  inhibition: Dose-Dependent Effect
MDA-MB-231
  pIC50: 4.93
MOLM-13 [23]
  Activity: 3.97%

## O=C(NCCc1c[nH]c2ccc(Cl)cc12)c1cc(-c2cccnc2)n[nH]1
[2]
  inhibition: 22.7%
A549
  pIC50: < 4.30
HepG2
  pIC50: 4.70
MCF7
  pIC50: 4.68
MOLM-13 [5]
  pIC50: 5.60
HeLa
  pIC50: 4.53
HCT-116
  pIC50: 4.81
CNE-2
  pIC50: 4.77
MDA-MB-231
  pIC50: 4.55

## CCNc1nc(N)nc(-c2cc(Cl)ccc2O)n1
[2]
  inhibition: 93.7%
A549
  pIC50: < 4.30
[3]
  pIC50: 6.47
HepG2
  pIC50: 4.31
MCF7
  pIC50: 4.72
MOLM-13 [5]
  pIC50: 4.82
HeLa
  pIC50: 5.13
HCT-116
  pIC50: 4.57
CNE-2
  pIC50: 4.52
MDA-MB-231
  pIC50: 4.67

## CCCCNc1nc(N)nc(-c2cc(Cl)ccc2O)n1
[2]
  inhibition: 93.6%
A549
  pIC50: 4.72
[3]
  pIC50: 6.67
HepG2
  pIC50: 4.39
MCF7
  pIC50: 4.95
MOLM-13 [5]
  pIC50: 4.87
HeLa
  pIC50: 4.86
HCT-116
  pIC50: 4.57
CNE-2
  pIC50: 4.77
MDA-MB-231
  pIC50: 4.80

## CN1CC[C@H](c2c(O)cc(O)c3c(=O)cc(-c4ccccc4Cl)oc23)[C@H](O)C1 [ALVOCIDIB]
A549
  pIC50: 7.00
HepG2
  pIC50: 6.25
MCF7
  pIC50: 6.15
MOLM-13 [5]
  pIC50: 7.15
HeLa
  pIC50: 6.82
HCT-116
  pIC50: 7.52
MOLM-13 [14]
  viability at 10 µM: 44.5%
MOLM-13 [16]
  Activity: 22.3%
CNE-2
  pIC50: 6.92
MOLM-13 [19]
  Activity: 25.5%
MOLM-13 [21]
  Activity: 7.81%
MDA-MB-231
  pIC50: 7.22
